Active and inactive are the calls of the source. No cut-off for these calls is given here.
How the values were obtained:
[1] = biological target: DNA topoisomerase 2-alpha (Homo sapiens, UniProt P11388); test: Inhibition of human Topo II-alpha-mediated decatenation of kDNA at 100 uM incubated for 30 mins
[2] = biological target: T1, DNA topoisomerase 1 (Homo sapiens) (UniProt P11387); test: Inhibition of human Topo I-mediated relaxation of supercoiled DNA preincubated for 30 mins followed by proteinase K addition measured after 30 mins by gel electrophoresis; conditions: time 60.0 min
T1 sequence (whole entry): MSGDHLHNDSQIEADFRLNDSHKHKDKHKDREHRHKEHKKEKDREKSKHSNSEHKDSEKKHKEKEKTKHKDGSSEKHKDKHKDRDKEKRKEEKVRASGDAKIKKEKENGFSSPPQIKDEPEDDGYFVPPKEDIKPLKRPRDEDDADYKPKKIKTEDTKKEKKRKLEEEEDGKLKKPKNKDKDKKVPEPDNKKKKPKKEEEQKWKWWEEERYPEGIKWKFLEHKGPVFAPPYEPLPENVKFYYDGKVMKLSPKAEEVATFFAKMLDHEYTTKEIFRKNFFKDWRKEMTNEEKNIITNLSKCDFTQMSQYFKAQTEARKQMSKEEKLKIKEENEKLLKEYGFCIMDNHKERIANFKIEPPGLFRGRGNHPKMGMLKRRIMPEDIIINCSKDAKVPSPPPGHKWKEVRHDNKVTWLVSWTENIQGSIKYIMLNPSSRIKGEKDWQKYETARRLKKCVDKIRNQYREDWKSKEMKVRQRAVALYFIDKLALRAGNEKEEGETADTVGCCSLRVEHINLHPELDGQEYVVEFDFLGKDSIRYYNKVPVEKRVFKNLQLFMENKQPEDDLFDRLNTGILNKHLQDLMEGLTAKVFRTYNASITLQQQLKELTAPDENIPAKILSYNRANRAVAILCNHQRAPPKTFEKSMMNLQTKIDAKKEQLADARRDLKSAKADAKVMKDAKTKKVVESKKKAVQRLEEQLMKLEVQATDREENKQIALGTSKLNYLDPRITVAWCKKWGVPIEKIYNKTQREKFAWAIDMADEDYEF

Supercoiled DNA = test: Binding affinity to supercoiled DNA (unknown origin) assessed as DNA intercalation measured after 30 mins by gel electrophoresis; assay type: nucleic-acid assay
Histone deacetylase 1 [3] = biological target: T2, Histone deacetylase 1 (Homo sapiens, UniProt Q13547); test: Inhibition of HDAC1 extracted from human A549 nucleus incubated for 1 hr by fluorometric assay; assay type: cell-free
T2 sequence (Q13547 whole entry): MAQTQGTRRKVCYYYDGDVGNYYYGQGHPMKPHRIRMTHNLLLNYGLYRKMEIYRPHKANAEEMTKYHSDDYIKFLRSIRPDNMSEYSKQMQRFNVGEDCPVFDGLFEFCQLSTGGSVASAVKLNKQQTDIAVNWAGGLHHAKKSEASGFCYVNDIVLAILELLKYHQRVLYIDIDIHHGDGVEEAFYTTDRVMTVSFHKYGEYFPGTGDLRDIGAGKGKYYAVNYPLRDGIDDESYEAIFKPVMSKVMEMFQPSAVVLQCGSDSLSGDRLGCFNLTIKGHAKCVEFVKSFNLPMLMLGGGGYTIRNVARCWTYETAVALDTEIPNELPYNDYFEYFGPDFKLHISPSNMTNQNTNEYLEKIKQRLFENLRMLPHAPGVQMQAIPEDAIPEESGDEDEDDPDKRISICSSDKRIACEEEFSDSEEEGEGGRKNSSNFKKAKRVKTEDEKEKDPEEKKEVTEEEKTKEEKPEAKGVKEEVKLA

[4] = biological target: T3, Protein deacetylase HDAC6 (Homo sapiens, UniProt Q9UBN7); test: Inhibition of HDAC6 (unknown origin) using acetylated-peptide substrate by fluorometric assay
T3 sequence (Q9UBN7 whole entry): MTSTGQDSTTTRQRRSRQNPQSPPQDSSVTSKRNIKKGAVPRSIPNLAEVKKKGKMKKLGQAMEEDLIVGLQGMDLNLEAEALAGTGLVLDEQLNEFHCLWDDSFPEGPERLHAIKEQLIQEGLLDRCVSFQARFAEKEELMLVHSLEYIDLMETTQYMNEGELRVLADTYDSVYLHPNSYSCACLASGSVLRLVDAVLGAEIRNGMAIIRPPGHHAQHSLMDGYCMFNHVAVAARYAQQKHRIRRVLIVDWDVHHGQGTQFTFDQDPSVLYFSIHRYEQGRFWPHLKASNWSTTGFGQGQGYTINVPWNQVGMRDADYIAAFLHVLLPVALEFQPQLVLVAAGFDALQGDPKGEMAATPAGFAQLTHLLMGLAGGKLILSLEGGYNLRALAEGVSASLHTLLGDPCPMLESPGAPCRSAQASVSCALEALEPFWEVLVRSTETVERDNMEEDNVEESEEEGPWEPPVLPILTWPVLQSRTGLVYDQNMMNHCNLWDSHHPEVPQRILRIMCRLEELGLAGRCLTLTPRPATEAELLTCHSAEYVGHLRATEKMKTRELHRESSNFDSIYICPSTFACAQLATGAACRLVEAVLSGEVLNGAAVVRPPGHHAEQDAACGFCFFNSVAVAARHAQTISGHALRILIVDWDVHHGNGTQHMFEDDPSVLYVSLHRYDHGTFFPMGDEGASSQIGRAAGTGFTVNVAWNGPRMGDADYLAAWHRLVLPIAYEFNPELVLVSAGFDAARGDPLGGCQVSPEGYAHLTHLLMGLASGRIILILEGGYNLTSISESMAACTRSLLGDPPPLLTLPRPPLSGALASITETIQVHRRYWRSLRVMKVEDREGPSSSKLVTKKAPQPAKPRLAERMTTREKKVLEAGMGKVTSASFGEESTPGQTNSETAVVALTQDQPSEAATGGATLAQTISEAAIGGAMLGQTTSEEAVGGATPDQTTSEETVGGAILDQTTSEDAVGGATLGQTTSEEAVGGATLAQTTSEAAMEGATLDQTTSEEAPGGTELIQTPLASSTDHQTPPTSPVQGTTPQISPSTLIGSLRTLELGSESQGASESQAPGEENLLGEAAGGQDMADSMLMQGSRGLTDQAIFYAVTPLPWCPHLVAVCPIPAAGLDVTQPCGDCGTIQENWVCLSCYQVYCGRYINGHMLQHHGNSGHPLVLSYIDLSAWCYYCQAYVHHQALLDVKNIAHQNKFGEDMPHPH

Histone deacetylase 8 [5] = biological target: T4, Histone deacetylase 8 (Homo sapiens, UniProt Q9BY41); test: Inhibition of HDAC8 (unknown origin) by fluorometric assay
T4 sequence (Q9BY41 whole entry): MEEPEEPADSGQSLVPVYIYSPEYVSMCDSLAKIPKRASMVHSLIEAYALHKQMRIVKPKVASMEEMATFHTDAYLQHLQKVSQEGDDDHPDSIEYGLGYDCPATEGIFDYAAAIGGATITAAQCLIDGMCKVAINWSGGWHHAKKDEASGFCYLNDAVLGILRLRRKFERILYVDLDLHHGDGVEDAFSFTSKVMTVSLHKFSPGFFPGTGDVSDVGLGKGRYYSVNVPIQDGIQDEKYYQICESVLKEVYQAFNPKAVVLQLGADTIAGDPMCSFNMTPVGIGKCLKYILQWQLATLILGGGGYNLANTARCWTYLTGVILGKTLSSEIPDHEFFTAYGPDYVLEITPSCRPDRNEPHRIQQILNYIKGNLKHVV

NCI-H1299 = test: cells; assay type: functional, cell-based; conditions: Homo sapiens, NCI-H1299, 48 h
MDA-MB-231 [6] = test: cells; assay type: functional, cell-based; conditions: Homo sapiens, MDA-MB-231, 48 h
MCF7 = test: cells; assay type: functional, cell-based; conditions: Homo sapiens, MCF7, 48 h
HT-29 = test: cells; assay type: functional, cell-based; conditions: Homo sapiens, HT-29, 48 h
A549 [7] = test: Anti-cancer activity against human A549 3D cell culture model assessed as inhibition of 3D culture initiation at sub- IC50 incubated for 21 days with replacement of medium containing compound on every seventh day; assay type: functional, cell-based; conditions: time 21.0 day
A549 [8] = test: Anti-cancer activity against human A549 3D cell culture model at sub- IC50 incubated for 17 days with replacement of medium containing compound on every third day; assay type: functional, cell-based; conditions: time 17.0 day
A549 [9] = test: Induction of ROS generation in human A549 cells incubated for 48 hrs by DCFH-DA staining based analysis; assay type: functional, cell-based
A549 [10] = test: Induction of ROS generation in human A549 cells incubated for 48 hrs by Cell Rox red staining based flow cytometry; assay type: functional
A549 [11] = test: Effect on mitochondrial membrane permeability in human A549 cells assessed as decrease in red to green fluorescence ratio at sub-IC50 incubated for 48 hrs by JC-1 staining based analysis; assay type: functional, cell-based
A549 [12] = test: Induction of apoptosis in human A549 cells by Annexin-V/PI staining based flow cytometry; assay type: functional, cell-based
A549 [13] = test: Induction of cell cycle arrest in human A549 cells assessed as accumulation at G1 phase by PI staining based flow cytometry; assay type: functional
A549 [14] = test: Induction of cell cycle arrest in human A549 cells assessed as accumulation at G2/M phase by PI staining based flow cytometry; assay type: functional
A549 [15] = test: cells; conditions: Homo sapiens, A549, 48 h
[16] = Antiproliferative activity against human NCI-H1975 cells harboring EGFR T790M mutant incubated for 48 hrs by MTT assay; assay type: functional, cell-based; conditions: NCI-H1975, 48 h
[17] = Toxicity in athymic nude Crl:NU-Foxn1nu mouse xenografted with human A549 cells assessed as animal survival at 30 mg/kg, po administered twice a week for 1 month; assay type: organism-based; conditions: in vivo, 730 h, time 1 months
Histone deacetylase 1 [18] = biological target: T2, Histone deacetylase 1; test: Inhibition of HDAC1 (unknown origin)
[19] = biological target: T3, Protein deacetylase HDAC6; test: Inhibition of HDAC6 (unknown origin)
Histone deacetylase 8 [20] = biological target: T4, Histone deacetylase 8; test: Inhibition of HDAC8 (unknown origin)
Histone deacetylase 2 = Histone deacetylase 2 (Homo sapiens, UniProt Q92769); test: Inhibition of HDAC2 (unknown origin)
Chain of Histone deacetylase 2 (Q92769 whole entry): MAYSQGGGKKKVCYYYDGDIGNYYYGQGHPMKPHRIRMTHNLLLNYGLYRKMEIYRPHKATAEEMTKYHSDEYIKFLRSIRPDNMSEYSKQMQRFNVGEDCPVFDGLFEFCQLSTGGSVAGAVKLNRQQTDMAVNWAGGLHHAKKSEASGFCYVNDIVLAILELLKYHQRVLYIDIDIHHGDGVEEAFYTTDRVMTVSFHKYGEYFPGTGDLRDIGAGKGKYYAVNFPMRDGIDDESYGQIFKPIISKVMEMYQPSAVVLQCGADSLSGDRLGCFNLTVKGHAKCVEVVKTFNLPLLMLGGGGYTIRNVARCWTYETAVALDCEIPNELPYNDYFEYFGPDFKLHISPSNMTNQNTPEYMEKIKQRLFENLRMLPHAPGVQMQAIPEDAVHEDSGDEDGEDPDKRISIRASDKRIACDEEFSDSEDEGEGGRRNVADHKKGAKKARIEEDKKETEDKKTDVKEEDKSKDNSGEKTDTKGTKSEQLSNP

Histone deacetylase 3 = Histone deacetylase 3 (Homo sapiens, UniProt O15379); test: Inhibition of HDAC3 (unknown origin)
Chain of Histone deacetylase 3 (O15379 whole entry): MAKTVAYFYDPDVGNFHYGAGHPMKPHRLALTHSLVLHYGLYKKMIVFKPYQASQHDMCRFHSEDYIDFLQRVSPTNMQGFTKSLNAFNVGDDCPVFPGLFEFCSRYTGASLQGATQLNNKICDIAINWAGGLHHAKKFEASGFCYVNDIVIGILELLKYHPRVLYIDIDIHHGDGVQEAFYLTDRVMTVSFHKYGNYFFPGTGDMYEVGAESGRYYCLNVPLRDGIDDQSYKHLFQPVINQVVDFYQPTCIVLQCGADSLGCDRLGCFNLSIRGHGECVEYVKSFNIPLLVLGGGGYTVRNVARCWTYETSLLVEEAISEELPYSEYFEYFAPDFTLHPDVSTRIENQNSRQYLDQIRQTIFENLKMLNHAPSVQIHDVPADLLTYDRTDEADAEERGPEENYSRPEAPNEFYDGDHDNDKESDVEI

Histone deacetylase 4 = Histone deacetylase 4 (Homo sapiens, UniProt P56524); test: Inhibition of HDAC4 (unknown origin)
Chain of Histone deacetylase 4 (P56524 whole entry): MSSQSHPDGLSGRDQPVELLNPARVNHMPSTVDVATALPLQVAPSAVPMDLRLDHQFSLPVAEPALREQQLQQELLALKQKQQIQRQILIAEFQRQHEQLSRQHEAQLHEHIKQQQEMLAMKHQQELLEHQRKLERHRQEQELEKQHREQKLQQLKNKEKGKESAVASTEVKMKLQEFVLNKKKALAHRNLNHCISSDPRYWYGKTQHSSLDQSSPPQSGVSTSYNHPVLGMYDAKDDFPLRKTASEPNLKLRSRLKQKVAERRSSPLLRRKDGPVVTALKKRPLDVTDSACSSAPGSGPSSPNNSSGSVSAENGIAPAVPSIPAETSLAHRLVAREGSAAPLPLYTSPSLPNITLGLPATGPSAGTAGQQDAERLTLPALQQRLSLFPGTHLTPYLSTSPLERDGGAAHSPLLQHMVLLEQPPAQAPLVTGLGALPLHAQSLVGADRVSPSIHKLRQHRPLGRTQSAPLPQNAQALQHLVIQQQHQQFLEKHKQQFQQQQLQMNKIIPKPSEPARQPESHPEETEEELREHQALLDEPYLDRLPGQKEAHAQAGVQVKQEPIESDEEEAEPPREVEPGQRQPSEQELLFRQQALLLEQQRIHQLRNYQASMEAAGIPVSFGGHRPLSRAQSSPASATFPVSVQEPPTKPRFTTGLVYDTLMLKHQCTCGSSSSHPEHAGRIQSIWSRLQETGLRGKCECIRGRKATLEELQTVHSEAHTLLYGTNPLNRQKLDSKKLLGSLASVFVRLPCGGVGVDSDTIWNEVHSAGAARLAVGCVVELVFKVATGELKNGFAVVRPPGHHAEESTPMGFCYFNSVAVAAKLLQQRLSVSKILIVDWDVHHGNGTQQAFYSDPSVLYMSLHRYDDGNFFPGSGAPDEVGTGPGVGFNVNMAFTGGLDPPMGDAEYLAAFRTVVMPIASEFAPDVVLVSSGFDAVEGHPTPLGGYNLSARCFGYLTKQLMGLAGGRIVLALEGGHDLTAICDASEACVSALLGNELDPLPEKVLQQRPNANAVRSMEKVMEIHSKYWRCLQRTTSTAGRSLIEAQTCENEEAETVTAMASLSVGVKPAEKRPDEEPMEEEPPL

[21] = biological target: Polyamine deacetylase HDAC10 (Homo sapiens, UniProt Q969S8); test: Inhibition of HDAC10 (unknown origin)
Chain of Polyamine deacetylase HDAC10 (Q969S8 whole entry): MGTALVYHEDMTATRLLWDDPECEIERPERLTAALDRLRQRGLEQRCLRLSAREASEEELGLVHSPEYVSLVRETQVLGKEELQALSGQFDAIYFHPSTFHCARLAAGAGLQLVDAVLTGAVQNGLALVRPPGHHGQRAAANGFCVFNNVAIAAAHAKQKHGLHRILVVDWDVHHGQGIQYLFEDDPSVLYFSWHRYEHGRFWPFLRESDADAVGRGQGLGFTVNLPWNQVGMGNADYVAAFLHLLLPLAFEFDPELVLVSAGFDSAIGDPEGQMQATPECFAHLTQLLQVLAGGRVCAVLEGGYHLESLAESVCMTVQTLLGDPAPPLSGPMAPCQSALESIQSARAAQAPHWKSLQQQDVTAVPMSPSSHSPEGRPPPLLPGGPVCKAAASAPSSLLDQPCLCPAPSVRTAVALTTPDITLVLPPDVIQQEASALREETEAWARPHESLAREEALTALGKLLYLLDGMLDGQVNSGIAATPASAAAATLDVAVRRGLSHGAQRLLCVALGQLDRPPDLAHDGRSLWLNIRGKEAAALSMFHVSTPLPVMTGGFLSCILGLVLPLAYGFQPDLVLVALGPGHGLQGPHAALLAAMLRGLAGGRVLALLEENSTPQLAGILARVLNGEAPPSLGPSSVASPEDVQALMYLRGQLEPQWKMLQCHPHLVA

Histone deacetylase 11 = Histone deacetylase 11 (Homo sapiens, UniProt Q96DB2); test: Inhibition of HDAC11 (unknown origin)
Chain of Histone deacetylase 11 (Q96DB2 whole entry): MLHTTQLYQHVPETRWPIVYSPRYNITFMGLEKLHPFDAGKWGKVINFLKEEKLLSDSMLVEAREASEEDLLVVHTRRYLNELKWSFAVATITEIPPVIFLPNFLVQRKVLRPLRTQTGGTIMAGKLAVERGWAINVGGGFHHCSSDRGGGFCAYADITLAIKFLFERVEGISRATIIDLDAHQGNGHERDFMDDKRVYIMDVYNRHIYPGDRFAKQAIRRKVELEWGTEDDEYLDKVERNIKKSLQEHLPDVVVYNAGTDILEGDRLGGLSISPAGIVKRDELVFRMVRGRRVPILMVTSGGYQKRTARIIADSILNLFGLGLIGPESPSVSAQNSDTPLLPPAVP

Histone deacetylase 1 [22] = biological target: T2, Histone deacetylase 1; test: Inhibition of HDAC1 (unknown origin) incubated for 48 hrs
MDA-MB-231 [23] = test: Anti-cancer activity against human MDA-MB-231 cells assessed as decrease in PCNA level at 5 uM incubated for 48 hrs by immunoblot analysis; assay type: functional, cell-based

Chain of DNA topoisomerase 2-alpha (P11388 whole entry): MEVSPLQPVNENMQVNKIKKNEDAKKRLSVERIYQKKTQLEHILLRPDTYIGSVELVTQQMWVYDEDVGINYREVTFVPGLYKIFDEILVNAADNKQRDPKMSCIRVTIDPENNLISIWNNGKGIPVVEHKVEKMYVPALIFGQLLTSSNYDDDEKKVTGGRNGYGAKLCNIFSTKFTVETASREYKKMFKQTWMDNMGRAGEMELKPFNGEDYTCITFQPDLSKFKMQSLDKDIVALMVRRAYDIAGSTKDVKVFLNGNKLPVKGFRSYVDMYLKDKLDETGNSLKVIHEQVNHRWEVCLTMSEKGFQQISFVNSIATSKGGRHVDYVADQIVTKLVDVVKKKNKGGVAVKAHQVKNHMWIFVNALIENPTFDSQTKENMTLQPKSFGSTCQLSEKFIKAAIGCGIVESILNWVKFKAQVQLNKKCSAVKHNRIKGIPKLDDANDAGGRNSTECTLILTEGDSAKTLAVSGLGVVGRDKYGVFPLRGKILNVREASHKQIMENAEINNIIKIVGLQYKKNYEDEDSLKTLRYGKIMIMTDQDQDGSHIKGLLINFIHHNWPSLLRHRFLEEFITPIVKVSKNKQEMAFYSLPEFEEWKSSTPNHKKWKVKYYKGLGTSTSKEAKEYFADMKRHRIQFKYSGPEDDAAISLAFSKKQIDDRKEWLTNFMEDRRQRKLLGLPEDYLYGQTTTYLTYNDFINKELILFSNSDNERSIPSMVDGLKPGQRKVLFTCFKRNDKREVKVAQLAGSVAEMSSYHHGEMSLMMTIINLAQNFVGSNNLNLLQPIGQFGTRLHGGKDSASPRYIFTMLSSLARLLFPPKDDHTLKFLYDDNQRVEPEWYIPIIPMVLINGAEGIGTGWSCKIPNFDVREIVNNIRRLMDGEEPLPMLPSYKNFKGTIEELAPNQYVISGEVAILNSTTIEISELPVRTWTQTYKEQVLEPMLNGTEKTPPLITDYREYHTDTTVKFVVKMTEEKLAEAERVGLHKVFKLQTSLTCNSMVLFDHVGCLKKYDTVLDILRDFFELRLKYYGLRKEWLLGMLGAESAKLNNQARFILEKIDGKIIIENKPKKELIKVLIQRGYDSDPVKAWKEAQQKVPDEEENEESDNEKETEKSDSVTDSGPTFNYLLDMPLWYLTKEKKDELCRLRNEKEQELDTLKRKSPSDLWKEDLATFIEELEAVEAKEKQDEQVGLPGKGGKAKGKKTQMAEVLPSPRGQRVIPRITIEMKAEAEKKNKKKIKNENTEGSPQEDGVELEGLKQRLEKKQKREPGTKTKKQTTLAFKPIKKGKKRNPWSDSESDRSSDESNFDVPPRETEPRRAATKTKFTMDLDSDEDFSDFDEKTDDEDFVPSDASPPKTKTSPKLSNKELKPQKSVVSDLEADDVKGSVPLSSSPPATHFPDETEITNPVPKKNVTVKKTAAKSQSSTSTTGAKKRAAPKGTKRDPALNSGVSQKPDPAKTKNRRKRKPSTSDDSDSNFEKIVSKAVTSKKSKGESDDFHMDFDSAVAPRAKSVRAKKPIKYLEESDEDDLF

Compound: COc1ccc(-c2ccc3ccc(OCCCCCC(=O)NO)cc3n2)cc1I
- inhibition [1]: Active; Observed As More Active Than Etoposide
- inhibition [2]: Active
- Activity (Supercoiled DNA): inactive
- IC50 (Histone deacetylase 1 [3]): 0.0335 µM
- IC50 [4]: 0.0478 µM
- IC50 (Histone deacetylase 8 [5]): > 0.5 µM
- IC50 (NCI-H1299): 1.98 µM
- IC50 (MDA-MB-231 [6]): 1.49 µM
- IC50 (MCF7): 2.87 µM
- IC50 (HT-29): 2.86 µM
- inhibition (A549 [7]): Active
- Activity (A549 [8]): Active; Exhibited Potent Effect
- Activity (A549 [9]): Active
- Activity (A549 [10]): Active
- Activity (A549 [11]): Not active; Result Signifies That Cell Death Induced Via Mitochondrial-Independent Pathways
- Activity (A549 [12]): Active
- Activity (A549 [13]): Active
- Activity (A549 [14]): Active
- IC50 (A549 [15]): 1.77 µM

Compound: COc1cc([C@@H]2c3cc4c(cc3[C@@H](O[C@@H]3O[C@@H]5CO[C@@H](C)O[C@H]5[C@H](O)[C@H]3O)[C@H]3COC(=O)[C@H]23)OCO4)cc(OC)c1O [ETOPOSIDE]
- IC50 [16]: 1.63 µM
- Activity [17]: Non-toxic

Compound: O=C(CCCCCCC(=O)Nc1ccccc1)NO [VORINOSTAT]
- IC50 [16]: 1.03 µM
- Activity [17]: Non-toxic
- IC50 (A549 [15]): 7.76 µM

Compound: COc1ccc(-c2ccc3cc(OCCCCCCC(=O)NO)ccc3n2)cc1
- inhibition [1]: Active; Observed As More Active Than Etoposide
- inhibition [2]: Active
- Activity (Supercoiled DNA): inactive
- IC50 (Histone deacetylase 1 [3]): 0.028 µM
- IC50 [4]: > 0.5 µM
- IC50 (Histone deacetylase 8 [5]): > 0.5 µM
- IC50 (NCI-H1299): 2.33 µM
- IC50 (MDA-MB-231 [6]): 0.978 µM
- IC50 (MCF7): 1.44 µM
- IC50 (HT-29): 3.91 µM
- inhibition (A549 [7]): Active
- Activity (A549 [8]): Active; Exhibited Commendable Decrease In Mass Of 3D Sphere
- Activity (A549 [9]): Active
- Activity (A549 [10]): Active
- Activity (A549 [11]): Active; Result Signifies That Cell Death Induced Via Mitochondrial-Dependent Pathways
- Activity (A549 [12]): Active
- Activity (A549 [13]): Active
- Activity (A549 [14]): Active
- IC50 (A549 [15]): 1.6 µM

Compound: CN1c2ccccc2C(=O)N2[C@H](C(=O)Nc3ccc(C(=O)Nc4ccccc4N)cc3)Cc3c([nH]c4ccccc34)[C@@H]12
- IC50 (Histone deacetylase 1 [18]): 0.00016 µM
- IC50 [19]: > 0.1 µM
- IC50 (Histone deacetylase 8 [20]): > 0.1 µM
- IC50 (Histone deacetylase 2): 0.01 µM
- IC50 (Histone deacetylase 3): 0.027 µM
- IC50 (Histone deacetylase 4): > 0.1 µM
- IC50 [21]: 0.0055 µM
- IC50 (Histone deacetylase 11): > 0.1 µM

Compound: O=C(CCCCCOc1ccc(-c2nc3ccccc3c3cc(-c4ccccc4)nn23)cc1)NO
- IC50 (Histone deacetylase 1 [22]): 0.79 µM

Compound: CC[C@@]1(O)C(=O)OCc2c1cc1n(c2=O)Cc2cc3ccccc3nc2-1 [CAMPTOTHECIN]
- IC50 (NCI-H1299): 5.22 µM
- IC50 (MDA-MB-231 [6]): 7.36 µM
- IC50 (MCF7): 5.67 µM
- IC50 (HT-29): 6.87 µM
- Activity (MDA-MB-231 [23]): inactive
- IC50 (A549 [15]): 6.86 µM
